# Data taken from ChEMBL document CHEMBL3297730, “Identification of 2,3-disubstituted pyridines as potent, non-emetic PDE4 inhibitors” (Bioorg Med Chem Lett, 2014).
# Legend:
# Cavia porcellus [1] = species on record: Cavia porcellus; assay: Inhibition of Hartley guinea pig PDE4 assessed as hydrolization of cAMP by measuring [3H]cAMP at 100 nM by radioisotope method
# Mus musculus = assay: Inhibition of eosinophil infiltration in ovalbumin-sensitized mouse at 10 mg/kg, po qd for 2 days administered 30 mins prior to ovalbumin challenge relative to vehicle-treated control; type: functional
# Cavia porcellus [2] = assay: Induction of bronchodilation in ovalbumin-sensitized guinea pig at 10 mg/kg, po administered 1 hr prior to ovalbumin challenge measured for 20 mins relative to vehicle-treated control; type: functional
# Mustela putorius furo [3] = assay: Toxicity in Marshall ferret assessed as vomiting at 30 mg/kg, po after 2 hrs; type: organism-based; set-up: dose 30 mg/kg, route oral; conditions: in vivo
# Cavia porcellus [4] = assay: Induction of bronchodilation in ovalbumin-sensitized guinea pig at 10 mg/kg, po administered 4 hrs prior to ovalbumin challenge measured for 20 mins relative to vehicle-treated control; type: functional
# Cavia porcellus [5] = species on record: Cavia porcellus; assay: Inhibition of immediate asthmatic response in ovalbumin-sensitized guinea pig; type: functional
# [6] = Drug level in ovalbumin-sensitized guinea pig lung treated with [14C]-2-(3-chlorophenoxy)-3-[3-(3-hydroxypyridin-4-yl)propoxy]pyridine at 10 mg/kg, po after 4 hrs; type: ADME, organism-based, Cavia porcellus; set-up: dose 10 mg/kg, route oral; conditions: in vivo
# [7] = Drug level in ovalbumin-sensitized guinea pig trachea assessed as radioactivity at 10 mg/kg, po after 0.5 hrs; type: ADME, organism-based, Cavia porcellus; set-up: dose 10 mg/kg, route oral; conditions: in vivo
# [8] = Drug level in ovalbumin-sensitized guinea pig trachea assessed as radioactivity at 10 mg/kg, po after 2 hrs; type: ADME, organism-based, Cavia porcellus; set-up: dose 10 mg/kg, route oral; conditions: in vivo
# [9] = Drug level in ovalbumin-sensitized guinea pig plasma treated with [14C]-2-(3-chlorophenoxy)-3-[3-(3-hydroxypyridin-4-yl)propoxy]pyridine at 10 mg/kg, po after 0.5 hrs; type: ADME, organism-based, Cavia porcellus; set-up: dose 10 mg/kg, route oral; conditions: in vivo
# [10] = Drug level in ovalbumin-sensitized guinea pig plasma assessed as radioactivity at 10 mg/kg, po after 2 hrs; type: ADME, organism-based, Cavia porcellus; set-up: dose 10 mg/kg, route oral; conditions: in vivo
# Mustela putorius furo [11] = assay: Toxicity in Marshall ferret assessed as vomiting at 10 mg/kg, po after 2 hrs; type: organism-based; set-up: dose 10 mg/kg, route oral; conditions: in vivo
# [12] = Drug level in ovalbumin-sensitized guinea pig plasma assessed as radioactivity at 10 mg/kg, po after 0.5 hrs; type: ADME, organism-based, Cavia porcellus; set-up: dose 10 mg/kg, route oral; conditions: in vivo
# [13] = Drug level in ovalbumin-sensitized guinea pig lung assessed as radioactivity at 10 mg/kg, po after 2 hrs; type: ADME, organism-based, Cavia porcellus; set-up: dose 10 mg/kg, route oral; conditions: in vivo
# [14] = Drug level in ovalbumin-sensitized guinea pig brain assessed as radioactivity at 10 mg/kg, po after 4 hrs; type: ADME, organism-based, Cavia porcellus; set-up: dose 10 mg/kg, route oral; conditions: in vivo
# [15] = Drug level in ovalbumin-sensitized guinea pig lung assessed as radioactivity at 10 mg/kg, po after 4 hrs; type: ADME, organism-based, Cavia porcellus; set-up: dose 10 mg/kg, route oral; conditions: in vivo
# [16] = Drug level in ovalbumin-sensitized guinea pig brain assessed as radioactivity at 10 mg/kg, po after 0.5 hrs; type: ADME, organism-based, Cavia porcellus; set-up: dose 10 mg/kg, route oral; conditions: in vivo
# [17] = Drug level in ovalbumin-sensitized guinea pig lung assessed as radioactivity at 10 mg/kg, po after 0.5 hrs; type: ADME, organism-based, Cavia porcellus; set-up: dose 10 mg/kg, route oral; conditions: in vivo
# [18] = Inhibition of Hartley guinea pig PDE4 assessed as hydrolization by radioisotope method; set-up: species or system Cavia porcellus
# [19] = Drug level in ovalbumin-sensitized guinea pig plasma assessed as radioactivity at 10 mg/kg, po after 4 hrs; type: ADME, organism-based, Cavia porcellus; set-up: dose 10 mg/kg, route oral; conditions: in vivo
# [20] = Inhibition of bovine PDE3; set-up: species or system Bos taurus
# [21] = Drug level in ovalbumin-sensitized guinea pig lung treated with [14C]-2-(3-chlorophenoxy)-3-[3-(3-hydroxypyridin-4-yl)propoxy]pyridine at 10 mg/kg, po after 2 hrs; type: ADME, organism-based, Cavia porcellus; set-up: dose 10 mg/kg, route oral; conditions: in vivo
# [22] = Drug level in ovalbumin-sensitized guinea pig lung treated with [14C]-2-(3-chlorophenoxy)-3-[3-(3-hydroxypyridin-4-yl)propoxy]pyridine at 10 mg/kg, po after 0.5 hrs; type: ADME, organism-based, Cavia porcellus; set-up: dose 10 mg/kg, route oral; conditions: in vivo
# [23] = Drug level in ovalbumin-sensitized guinea pig brain assessed as radioactivity at 10 mg/kg, po after 2 hrs; type: ADME, organism-based, Cavia porcellus; set-up: dose 10 mg/kg, route oral; conditions: in vivo
# Mustela putorius furo [24] = assay: Toxicity in Marshall ferret assessed as vomiting at 300 mg/kg, po after 2 hrs; type: organism-based; set-up: dose 300 mg/kg, route oral; conditions: in vivo
# Phosphodiesterase 4 = Phosphodiesterase 4 (Homo sapiens, UniProt P27815+Q08499+Q07343+Q08493); assay: Inhibition of human PDE4; type: protein assay
# [25] = Drug level in ovalbumin-sensitized guinea pig trachea assessed as radioactivity at 10 mg/kg, po after 4 hrs; type: ADME, organism-based, Cavia porcellus; set-up: dose 10 mg/kg, route oral; conditions: in vivo
# Cavia porcellus [26] = species on record: Cavia porcellus; assay: Inhibition of late asthmatic response in ovalbumin-sensitized guinea pig; type: functional
# [27] = Drug level in ovalbumin-sensitized guinea pig trachea treated with [14C]-2-(3-chlorophenoxy)-3-[3-(3-hydroxypyridin-4-yl)propoxy]pyridine at 10 mg/kg, po after 0.5 hrs; type: ADME, organism-based, Cavia porcellus; set-up: dose 10 mg/kg, route oral; conditions: in vivo
# [28] = Drug level in ovalbumin-sensitized guinea pig trachea treated with [14C]-2-(3-chlorophenoxy)-3-[3-(3-hydroxypyridin-4-yl)propoxy]pyridine at 10 mg/kg, po after 2 hrs; type: ADME, organism-based, Cavia porcellus; set-up: dose 10 mg/kg, route oral; conditions: in vivo
# [29] = Drug level in ovalbumin-sensitized guinea pig trachea treated with [14C]-2-(3-chlorophenoxy)-3-[3-(3-hydroxypyridin-4-yl)propoxy]pyridine at 10 mg/kg, po after 4 hrs; type: ADME, organism-based, Cavia porcellus; set-up: dose 10 mg/kg, route oral; conditions: in vivo
# [30] = Drug level in ovalbumin-sensitized guinea pig plasma treated with [14C]-2-(3-chlorophenoxy)-3-[3-(3-hydroxypyridin-4-yl)propoxy]pyridine at 10 mg/kg, po after 4 hrs; type: ADME, organism-based, Cavia porcellus; set-up: dose 10 mg/kg, route oral; conditions: in vivo
# [31] = Drug level in ovalbumin-sensitized guinea pig plasma treated with [14C]-2-(3-chlorophenoxy)-3-[3-(3-hydroxypyridin-4-yl)propoxy]pyridine at 10 mg/kg, po after 2 hrs; type: ADME, organism-based, Cavia porcellus; set-up: dose 10 mg/kg, route oral; conditions: in vivo
# Mustela putorius furo [32] = assay: Toxicity in po dosed Marshall ferret assessed as vomiting; type: organism-based; conditions: in vivo
# Mustela putorius furo [33] = assay: Toxicity in Marshall ferret assessed as vomiting at 1 mg/kg, po after 2 hrs; type: organism-based; set-up: dose 1 mg/kg, route oral; conditions: in vivo
structure (smiles),measurement,setting,value
Oc1cnccc1CCCOc1cccnc1Oc1ccc(Cl)cc1,inhibition,Cavia porcellus [1],46%
Oc1cnccc1CCCOc1cccnc1Sc1cccc(Br)c1,inhibition in vivo at 10 mg/kg,Mus musculus,33%
same,inhibition,Cavia porcellus [1],66%
same,Activity,Cavia porcellus [2],8%
O=C(c1cccc(Br)c1)c1ncccc1OCCCc1ccncc1,inhibition,Cavia porcellus [1],27%
Oc1cnccc1CCCOc1cccnc1Oc1cccc(Br)c1,Activity,Mustela putorius furo [3],Non-toxic
same,inhibition in vivo at 10 mg/kg,Mus musculus,50%
same,inhibition,Cavia porcellus [1],77%
same,Activity,Cavia porcellus [2],70%
same,Activity,Cavia porcellus [4],12%
Oc1cnccc1CCCOc1cccnc1Oc1ccccc1Cl,inhibition,Cavia porcellus [1],30%
Oc1cnccc1CCCOc1cccnc1Oc1cccc(Cl)c1,Activity,Mustela putorius furo [3],Non-toxic
same,inhibition (INH),Cavia porcellus [5],45%
same,Drug uptake,[6],7.7 ngequiv/g
same,Drug uptake,[7],142.1 ngequiv/g
same,Drug uptake,[8],85.1 ngequiv/g
same,Cp,[9],1.7 ngequiv/ml
same,Cp,[10],452.8 ngequiv/ml
same,Activity,Mustela putorius furo [11],Non-toxic
same,inhibition,Cavia porcellus [1],75%
same,Cp,[12],387.6 ngequiv/ml
same,Activity,Cavia porcellus [2],55%
same,Activity,Cavia porcellus [4],45%
same,Drug uptake,[13],232.9 ngequiv/g
same,Drug uptake,[14],14.5 ngequiv/g
same,Drug uptake,[15],178.7 ngequiv/g
same,Drug uptake,[16],31.9 ngequiv/g
same,Drug uptake,[17],251.2 ngequiv/g
same,IC50,[18],38 nM
same,Cp,[19],346.2 ngequiv/ml
same,IC50,[20],> 30000 nM
same,Drug uptake,[21],12.8 ngequiv/g
same,Drug uptake,[22],21 ngequiv/g
same,Drug uptake,[23],17.7 ngequiv/g
same,Activity,Mustela putorius furo [24],Non-toxic
same,IC50,Phosphodiesterase 4,33 nM
same,Drug uptake,[25],90.1 ngequiv/g
same,inhibition (INH),Cavia porcellus [26],40%
same,Drug uptake,[27],14.4 ngequiv/g
Oc1cnccc1CCCOc1cccnc1Oc1cccc(F)c1,inhibition,Cavia porcellus [1],74%
same,Activity,Cavia porcellus [2],55%
same,Activity,Cavia porcellus [4],9%
Oc1cnccc1CCCOc1cccnc1Cc1cccc(Br)c1,inhibition in vivo at 10 mg/kg,Mus musculus,44%
same,inhibition,Cavia porcellus [1],87%
same,Activity,Cavia porcellus [2],13%
Brc1cccc(Nc2ncccc2OCCCc2ccncc2)c1,inhibition,Cavia porcellus [1],51%
O=S(=O)(O)Oc1cnccc1CCCOc1cccnc1Oc1cccc(Cl)c1,Drug uptake,[6],79.9 ngequiv/g
same,Drug uptake,[28],34.4 ngequiv/g
same,Drug uptake,[29],44 ngequiv/g
same,Cp,[9],43.8 ngequiv/ml
same,Cp,[30],194.4 ngequiv/ml
same,IC50,[18],837 nM
same,Drug uptake,[21],78.9 ngequiv/g
same,Drug uptake,[22],29.2 ngequiv/g
same,Cp,[31],219.2 ngequiv/ml
same,Drug uptake,[27],17.2 ngequiv/g
Oc1cnccc1CCCOc1cccnc1Oc1cc(Cl)cc(Cl)c1,inhibition,Cavia porcellus [1],6%
Brc1cccc(Cc2ncccc2OCCCc2ccncc2)c1,inhibition in vivo at 10 mg/kg,Mus musculus,43%
same,inhibition,Cavia porcellus [1],89%
same,Activity,Cavia porcellus [2],63%
O=C(O)[C@H]1O[C@@H](Oc2cnccc2CCCOc2cccnc2Oc2cccc(Cl)c2)[C@H](O)[C@@H](O)[C@@H]1O,Drug uptake,[6],33.8 ngequiv/g
same,Drug uptake,[28],33.7 ngequiv/g
same,Drug uptake,[29],28.1 ngequiv/g
same,Cp,[9],130.4 ngequiv/ml
same,Cp,[30],79.3 ngequiv/ml
same,IC50,[18],11500 nM
same,Drug uptake,[21],59.5 ngequiv/g
same,Drug uptake,[22],46.5 ngequiv/g
same,Cp,[31],130.8 ngequiv/ml
same,Drug uptake,[27],53.6 ngequiv/g
Brc1cccc(Sc2ncccc2OCCCc2ccncc2)c1,Activity,Mustela putorius furo [3],Toxic
same,inhibition in vivo at 10 mg/kg,Mus musculus,50%
same,inhibition,Cavia porcellus [1],80%
same,Activity,Cavia porcellus [2],77%
same,Activity,Mustela putorius furo [32],Dose-dependent effect
COc1ccc(C2CNC(=O)C2)cc1OC1CCCC1 (centres undefined) [ROLIPRAM],Activity,Mustela putorius furo [11],Toxic
same,inhibition,Cavia porcellus [1],54%
same,Activity,Cavia porcellus [2],50%
same,Activity,Cavia porcellus [4],13%
same,Activity,Mustela putorius furo [33],Non-toxic
same,Activity,Mustela putorius furo [32],Dose-dependent effect
Brc1cccc(Oc2ncccc2OCCCc2ccncc2)c1,inhibition in vivo at 10 mg/kg,Mus musculus,23%
same,inhibition,Cavia porcellus [1],80%
same,Activity,Cavia porcellus [2],49%
